Results as given in patent US8937183B2, “Detection of hydrogen peroxide” (Promega Corporation, priority 2011, dated 2015).

Assay: Signal strength differences due to reaction pH and buffer composition (hydrogen peroxide, D-cysteine conversion, LDR)
Type: biochemical
Conditions: for Net Average Signals at 15 Minutes / Net Average Signals at 60 Minutes / Net Average Signals at 105 Minutes: 100 μl of 10 μM H2O2 added
Procedure: A 30 μl sample of 4 mg/ml PBI 4458 in DMSO was diluted to 1.5 ml with Nanopure water, and 50 μl added to wells A1-12 and E1-12 of a microtiter plate. A 30 μl sample of 4 mg/ml PBI 4472 in DMSO was diluted to 1.5 ml with Nanopure, and 50 μl added to wells B1-12 and F1-12 of the plate. A 30 μl sample of 4 mg/ml PBI 4480 in DMSO was diluted to 1.5 ml with Nanopure water, and 50 μl added to wells C1-12 and G1-12 of the plate. A 30 μl sample of 4 mg/ml PBI 4481 in DMSO was diluted to 1.5 ml with Nanopure water, and 50 μl added to wells D1-12 and H1-12 of the plate. To the plate, a 50 μl sample of 200 mM KHPO4, pH 7.4 was added to wells A1-D4; 50 μl 200 mM Tris buffer, pH 7.4 was added to wells A5-D8; 50 μl 250 mM HEPES buffer, pH 7.5 was added to wells A9-D12; 50 μl 200 mM KHPO4 buffer, pH 9.2 was added to wells E1-H4; 50 μl 250 mM Tris buffer, pH 10.4 was added to wells E5-H8; and 50 μl 100 mM CAPS buffer, pH 10.4 was added to wells E9-H12.
A sample of hydrogen peroxide (30%, Sigma, H1009-5 ml) was diluted to 10 μM with Nanopure water, and 100 μl added to columns 3, 4, 7, 8, 11, 12 wells A-H of the plate. 100 μl Nanopure water was added to columns 1, 2, 5, 6, 9 and 10 of the plate. The plate was incubated at room temperature for 15 minutes.
A conversion solution was made by mixing 5 ml of 1 M HEPES buffer, pH 7.5, 4.9 ml of Nanopure water and 100 μl of 100 mM D-cysteine (in Nanopure water), and […] added to all wells of a luminometer plate.
After incubation, 25 μl of sample from all wells in the plate was transferred and mixed into the corresponding wells in the luminometer plate, incubated 2-3 minutes at room temperature, and 50 μl LDR (Example 23) added. The luminometer plate was incubated for 15 minutes at room temperature, and bioluminescence detected on a GloMax® luminometer.
Additional samples were taken at 60 and 105 minutes and added to a fresh luminometer plates containing 25 μl of conversion solution in all wells. The plates were then incubated for 15 minutes at room temperature, and bioluminescence detected as previously described.

Structure (SMILES)	Signal to Background Ratios at 15 Minutes (CAPS pH 10.4, 15 minutes)	Net Average Signals at 15 Minutes (CAPS pH 10.4, 15 minutes)	Signal to Background Ratios at 60 Minutes (CAPS pH 10.4, 60 minutes)	Net Average Signals at 60 Minutes (CAPS pH 10.4, 60 minutes)	Signal to Background Ratios at 105 Minutes (CAPS pH 10.4, 105 minutes)	Net Average Signals at 105 Minutes (CAPS pH 10.4, 105 minutes)	Signal to Background Ratios at 15 Minutes (HEPES pH 7.5, 15 minutes)	Net Average Signals at 15 Minutes (HEPES pH 7.5, 15 minutes)	Signal to Background Ratios at 60 Minutes (HEPES pH 7.5, 60 minutes)	Net Average Signals at 60 Minutes (HEPES pH 7.5, 60 minutes)	Signal to Background Ratios at 105 Minutes (HEPES pH 7.5, 105 minutes)	Net Average Signals at 105 Minutes (HEPES pH 7.5, 105 minutes)	Net Average Signals at 15 Minutes (KPO4 Ph 7.4, 15 minutes)	Signal to Background Ratios at 15 Minutes (KPO4 pH 7.4, 15 minutes)	Signal to Background Ratios at 60 Minutes (KPO4 pH 7.4, 60 minutes)	Net Average Signals at 60 Minutes (KPO4 pH 7.4, 60 minutes)	Signal to Background Ratios at 105 Minutes (KPO4 pH 7.4, 105 minutes)	Net Average Signals at 105 Minutes (KPO4 pH 7.4, 105 minutes)	Signal to Background Ratios at 15 Minutes (KPO4 pH 9.2, 15 minutes)	Net Average Signals at 15 Minutes (KPO4 pH 9.2, 15 minutes)	other results
CC1(C)OB(/C=C/COc2ccc3nc(C#N)sc3c2)OC1(C)C [PBI 4458, (E)-6-((3-(4,4,5,5-tetramethyl-1,3,2-dioxaborolan-2-yl)allyl)oxy)-benzo[d]thiazole-2-carbonitrile]	13.2	4,577,774 RLU	12.1	5,831,485 RLU	9.6	8,063,108 RLU	2.0	117,752 RLU	4.5	494,958 RLU	5.7	1,033,511 RLU	148,190 RLU	2.2	4.5	615,057 RLU	5.4	1,297,857 RLU	6.4	937,111 RLU	Signal to Background Ratios at 60 Minutes (KPO4 pH 9.2, 60 minutes): 9.5; Net Average Signals at 60 Minutes (KPO4 pH 9.2, 60 minutes): 2,490,775 RLU; Signal to Background Ratios at 105 Minutes (KPO4 pH 9.2, 105 minutes): 9.1; Net Average Signals at 105 Minutes (KPO4 pH 9.2, 105 minutes): 4,925,484 RLU; Signal to Background Ratios at 15 Minutes (TRIS pH 10.4, 15 minutes): 15.2; Net Average Signals at 15 Minutes (TRIS pH 10.4, 15 minutes): 2,348,900 RLU; Signal to Background Ratios at 60 Minutes (TRIS pH 10.4, 60 minutes): 19.4; Net Average Signals at 60 Minutes (TRIS pH 10.4, 60 minutes): 3,795,644 RLU; Signal to Background Ratios at 105 Minutes (TRIS pH 10.4, 105 minutes): 15.7; Net Average Signals at 105 Minutes (TRIS pH 10.4, 105 minutes): 5,482,012 RLU; Signal to Background Ratios at 15 Minutes (Tris pH 7.4, 15 minutes): 2.2; Net Average Signals at 15 Minutes (Tris pH 7.4, 15 minutes): 150,205 RLU; Signal to Background Ratios at 60 Minutes (Tris pH 7.4, 60 minutes): 4.6; Net Average Signals at 60 Minutes (Tris pH 7.4, 60 minutes): 626,927 RLU; Signal to Background Ratios at 105 Minutes (Tris pH 7.4, 105 minutes): 6.0; Net Average Signals at 105 Minutes (Tris pH 7.4, 105 minutes): 1,274,061 RLU
CC1(C)OB(c2ccc(COc3ccc4nc(C#N)sc4c3)cc2F)OC1(C)C [PBI 4481, 6-((3-fluoro-4-(4,4,5,5-tetramethyl-1,3,2-dioxaborolan-2-yl)benzyl)oxy)benzo[d]thiazole-2-carbonitrile]	15.0	3,139,869 RLU	15.6	4,514,998 RLU	12.3	6,646,007 RLU	1.4	15,697 RLU	2.5	56,121 RLU	3.0	111,757 RLU	16,032 RLU	1.5	2.2	48,355 RLU	2.7	108,403 RLU	4.7	189,573 RLU	Signal to Background Ratios at 60 Minutes (KPO4 pH 9.2, 60 minutes): 8.3; Net Average Signals at 60 Minutes (KPO4 pH 9.2, 60 minutes): 494,981 RLU; Signal to Background Ratios at 105 Minutes (KPO4 pH 9.2, 105 minutes): 7.7; Net Average Signals at 105 Minutes (KPO4 pH 9.2, 105 minutes): 974,784 RLU; Signal to Background Ratios at 15 Minutes (TRIS pH 10.4, 15 minutes): 23.2; Net Average Signals at 15 Minutes (TRIS pH 10.4, 15 minutes): 1,467,615 RLU; Signal to Background Ratios at 60 Minutes (TRIS pH 10.4, 60 minutes): 27.8; Net Average Signals at 60 Minutes (TRIS pH 10.4, 60 minutes): 2,780,433 RLU; Signal to Background Ratios at 105 Minutes (TRIS pH 10.4, 105 minutes): 24.2; Net Average Signals at 105 Minutes (TRIS pH 10.4, 105 minutes): 4,441,956 RLU; Signal to Background Ratios at 15 Minutes (Tris pH 7.4, 15 minutes): 1.9; Net Average Signals at 15 Minutes (Tris pH 7.4, 15 minutes): 29,382 RLU; Signal to Background Ratios at 60 Minutes (Tris pH 7.4, 60 minutes): 3.5; Net Average Signals at 60 Minutes (Tris pH 7.4, 60 minutes): 111,440 RLU; Signal to Background Ratios at 105 Minutes (Tris pH 7.4, 105 minutes): 4.4; Net Average Signals at 105 Minutes (Tris pH 7.4, 105 minutes): 245,489 RLU
CC1(C)OB(c2ccc(COc3ccc4nc(C#N)sc4c3)c3ccccc23)OC1(C)C [PBI 4480, 6-((4-(4,4,5,5-tetramethyl-1,3,2-dioxaborolan-2-yl)naphthalen-1-yl)methoxy)benzo[d]thiazole-2-carbonitrile]	12.1	1,799,015 RLU	14.7	4,256,769 RLU	12.6	7,150,225 RLU	1.0	−234 RLU	1.7	29,727 RLU	2.3	75,066 RLU	3,538 RLU	1.1	1.6	38,198 RLU	1.9	86,881 RLU	1.7	37,330 RLU	Signal to Background Ratios at 60 Minutes (KPO4 pH 9.2, 60 minutes): 3.6; Net Average Signals at 60 Minutes (KPO4 pH 9.2, 60 minutes): 218,078 RLU; Signal to Background Ratios at 105 Minutes (KPO4 pH 9.2, 105 minutes): 5.1; Net Average Signals at 105 Minutes (KPO4 pH 9.2, 105 minutes): 587,867 RLU; Signal to Background Ratios at 15 Minutes (TRIS pH 10.4, 15 minutes): 11.1; Net Average Signals at 15 Minutes (TRIS pH 10.4, 15 minutes): 743,427 RLU; Signal to Background Ratios at 60 Minutes (TRIS pH 10.4, 60 minutes): 17.9; Net Average Signals at 60 Minutes (TRIS pH 10.4, 60 minutes): 1,903,885 RLU; Signal to Background Ratios at 105 Minutes (TRIS pH 10.4, 105 minutes): 17.5; Net Average Signals at 105 Minutes (TRIS pH 10.4, 105 minutes): 3,541,742 RLU; Signal to Background Ratios at 15 Minutes (Tris pH 7.4, 15 minutes): 1.2; Net Average Signals at 15 Minutes (Tris pH 7.4, 15 minutes): 7,845 RLU; Signal to Background Ratios at 60 Minutes (Tris pH 7.4, 60 minutes): 2.0; Net Average Signals at 60 Minutes (Tris pH 7.4, 60 minutes): 61,031 RLU; Signal to Background Ratios at 105 Minutes (Tris pH 7.4, 105 minutes): 2.6; Net Average Signals at 105 Minutes (Tris pH 7.4, 105 minutes): 162,663 RLU
